Data taken from patent US20250313563A1, “GLYCOGEN SYNTHASE KINASE 3 INHIBITORS AND USES THEREOF” (The Broad Institute, Inc., priority 2022, published 2025).
Where two headings read alike, the source gives them in different places.

How the values were obtained:
[1] = biological target: GSK3α (GST-full length GSK3α) (Homo sapiens (Human), UniProt P49840); assay: GSK3α TR-FRET kinase assay; assay type: biochemical
Method in brief: (§1)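 Readout: anti-pSer641 Tb antibody/streptavidin-d2 signal after 60 min, expressed as 665/615 ratio and fitted versus log concentration for IC50. Enzyme: 1 nM GST-GSK3 (α or β), compound-preincubated 30 min. Conditions: pH 7.5 Tris buffer with MgCl2, DTT, BSA; ATP at 4 or 2 μM, or 1 mM; 100 min.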

[2] = biological target: GSK3b (GST-full length GSK3b) (Homo sapiens (Human), UniProt P49841); assay: GSK3b TR-FRET kinase assay; assay type: biochemical
Method in brief: as §1

[3] = 1 nM GSK3α, 4 μM ATP, 30 minute preincubation, Table 16, read-out: GSK3-A TR-FRET BIOCHEMICAL (TR-FRET), IC50
[4] = 1 nM GSK3b, 2 μM ATP, 30 minute preincubation, Table 16, read-out: GSK3-B TR-FRET BIOCHEMICAL (TR-FRET), IC50
[5] = read-out: GSK3-A (TR-FRET 1 mM ATP), GMean, IC50, 1 mM ATP, geometric mean
[6] = read-out: GSK3-B (TR-FRET 1 mM ATP), GMean, IC50, 1 mM ATP, geometric mean
[7] = 1 nM GSK3α, 4 μM ATP, 30 minute preincubation, read-out: GSK3-A TR-FRET BIOCHEMICAL (TR-FRET), IC50
[8] = 1 nM GSK3b, 2 μM ATP, 30 minute preincubation, read-out: GSK3-B TR-FRET BIOCHEMICAL (TR-FRET), IC50

GSK3α (GST-full length GSK3α), sequence (P49840 whole entry): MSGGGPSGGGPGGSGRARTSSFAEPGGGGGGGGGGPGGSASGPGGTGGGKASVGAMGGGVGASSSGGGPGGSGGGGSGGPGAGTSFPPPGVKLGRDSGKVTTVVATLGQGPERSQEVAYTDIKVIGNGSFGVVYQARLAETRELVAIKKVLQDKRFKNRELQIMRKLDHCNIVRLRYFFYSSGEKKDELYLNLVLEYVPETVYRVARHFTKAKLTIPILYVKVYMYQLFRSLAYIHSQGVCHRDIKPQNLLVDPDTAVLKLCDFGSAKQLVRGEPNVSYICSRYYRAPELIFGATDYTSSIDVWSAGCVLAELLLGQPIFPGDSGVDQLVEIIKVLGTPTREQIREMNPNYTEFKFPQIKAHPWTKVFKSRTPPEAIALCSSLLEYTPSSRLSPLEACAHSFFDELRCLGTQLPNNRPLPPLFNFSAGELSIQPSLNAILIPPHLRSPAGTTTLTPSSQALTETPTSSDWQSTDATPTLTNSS
GSK3b (GST-full length GSK3b), sequence (P49841 whole entry): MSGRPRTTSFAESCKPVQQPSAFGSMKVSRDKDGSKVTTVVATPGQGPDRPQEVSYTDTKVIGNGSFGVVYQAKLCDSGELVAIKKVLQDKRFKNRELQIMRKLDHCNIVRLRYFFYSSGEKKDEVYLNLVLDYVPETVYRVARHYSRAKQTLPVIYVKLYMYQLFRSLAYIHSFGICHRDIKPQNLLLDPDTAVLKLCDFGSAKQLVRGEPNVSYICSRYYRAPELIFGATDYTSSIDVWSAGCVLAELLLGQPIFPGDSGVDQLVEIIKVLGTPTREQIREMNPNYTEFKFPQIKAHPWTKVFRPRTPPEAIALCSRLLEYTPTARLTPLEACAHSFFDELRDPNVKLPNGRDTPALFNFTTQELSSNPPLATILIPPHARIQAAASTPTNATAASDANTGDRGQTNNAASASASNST

Row | IC50 [1, 3] | IC50 [2, 4] | Compound | further results
1 | 1 to 5 µM | 1 to 5 µM | CC1(C)CC(=O)C2=C(C1)Nc1n[nH]cc1C21CN(C2CCCCC2)C1 [Compound 929446] | 
2 |  |  | CCCS(=O)(=O)c1cccc(C2(CC)C3=C(CC(C)(C)CC3=O)Nc3n[nH]cc32)c1 (stereo not drawn) [Compound 929447] | IC50 [1, 5]: ≤ 0.1 µM; IC50 [2, 6]: 0.1 to 1 µM
3 | > 5 µM | > 5 µM | CCN1CC2(C1)C1=C(CC(C)(C)CC1=O)Nc1n[nH]cc12 [Compound 929448] | 
4 | 1 to 5 µM | 1 to 5 µM | CCC1(c2cccc(N3CCc4cnccc4C3)c2)C2=C(CC(C)(C)CC2=O)Nc2n[nH]cc21 (stereo not drawn) [Compound 929449] | 
5 | > 5 µM | > 5 µM | CC[C@]1(c2cc(N(C)C(C)=O)ccc2F)C2=C(CC(C)(C)CC2=O)Nc2n[nH]c(C)c21 [Compound 929451] | 
6 | 1 to 5 µM | > 5 µM | CC[C@]1(c2cccc(N(C)c3ccnc(F)c3)c2)C2=C(CC(C)(C)CC2=O)Nc2n[nH]cc21 [Compound 929453] | 
7 | ≤ 0.1 µM | ≤ 0.1 µM | CC[C@]1(c2cccc(-c3ccnnc3)c2)C2=C(CC(C)(C)CC2=O)Nc2n[nH]cc21 [Compound 929454] | IC50 [1, 5]: 0.1 to 1 µM; IC50 [2, 6]: 1 to 5 µM
8 | > 5 µM | > 5 µM | CC[C@@]1(c2cccc(N(C)C(=O)c3ccn(C)n3)c2)C2=C(CC(C)(C)CC2=O)Nc2n[nH]cc21 [Compound 929455] | 
9 |  |  | CCC1(c2cccc(C(F)(F)F)c2)C2=C(CCN(c3ccccc3)C2=O)Nc2n[nH]cc21 (stereo not drawn) [Compound 929474] | IC50 [1, 7]: ≤ 0.1 µM; IC50 [2, 8]: 0.1 to 1 µM
10 |  |  | CC[C@]1(c2cccc(C(F)(F)F)c2)C2=C(CCN(c3ccccc3)C2=O)Nc2n[nH]cc21 [Compound 929475] | IC50 [1, 7]: > 5 µM; IC50 [2, 8]: > 5 µM
11 |  |  | CC[C@@]1(c2cccc(C(F)(F)F)c2)C2=C(Nc3n[nH]cc31)[C@@H](C)N(Cc1ccccc1)C2=O [Compound 930330] | IC50 [1, 7]: ≤ 0.1 µM; IC50 [2, 8]: 0.1 to 1 µM
12 |  |  | CC[C@@]1(c2cccc(C(F)(F)F)c2)C2=C(Nc3n[nH]cc31)[C@H](C)N(Cc1ccccc1)C2=O [Compound 930331] | IC50 [1, 7]: ≤ 0.1 µM; IC50 [2, 8]: 0.1 to 1 µM
13 |  |  | CC[C@]1(c2cccc(C(F)(F)F)c2)C2=C(Nc3n[nH]cc31)[C@H](C)N(Cc1ccccc1)C2=O [Compound 930333] | IC50 [1, 7]: > 5 µM; IC50 [2, 8]: > 5 µM
14 | 1 to 5 µM | > 5 µM | CC1(C)CC(=O)C2=C(C1)Nc1n[nH]cc1[C@@]21CCCc2ccccc21 [Compound 930565] | 
15 | ≤ 0.1 µM | 0.1 to 1 µM | CC1(C)CC(=O)C2=C(C1)Nc1n[nH]cc1[C@]21CCCc2ccccc21 [Compound 930566] | 
16 | ≤ 0.1 µM | ≤ 0.1 µM | CCC1(c2cccc(-c3ccnc4c3CCCC4)c2)C2=C(CC(C)(C)CC2=O)Nc2n[nH]cc21 (stereo not drawn) [Compound 932625] | 
17 | 0.1 to 1 µM | 0.1 to 1 µM | CCC1(c2cccc(-c3ccnc(OC(C)C)c3)c2)C2=C(CC(C)(C)CC2=O)Nc2n[nH]cc21 (stereo not drawn) [Compound 932626] | 
18 | ≤ 0.1 µM | ≤ 0.1 µM | CCC1(c2cccc(-c3ccncc3OC)c2)C2=C(CC(C)(C)CC2=O)Nc2n[nH]cc21 (stereo not drawn) [Compound 932627] | 
19 | ≤ 0.1 µM | 0.1 to 1 µM | CCC1(c2cccc(-c3ccnc(OC)c3C)c2)C2=C(CC(C)(C)CC2=O)Nc2n[nH]cc21 (stereo not drawn) [Compound 932628] | 
20 | ≤ 0.1 µM | 0.1 to 1 µM | CCC1(c2cccc(-c3ccnc(OC(F)F)c3)c2)C2=C(CC(C)(C)CC2=O)Nc2n[nH]cc21 (stereo not drawn) [Compound 932629] | 
21 | ≤ 0.1 µM | ≤ 0.1 µM | CCC1(c2cccc(-c3cc(OC)ncc3F)c2)C2=C(CC(C)(C)CC2=O)Nc2n[nH]cc21 (stereo not drawn) [Compound 932630] | 
22 | ≤ 0.1 µM | ≤ 0.1 µM | CCC1(c2cccc(-c3ccnc4ccccc34)c2)C2=C(CC(C)(C)CC2=O)Nc2n[nH]cc21 (stereo not drawn) [Compound 932631] | 
23 |  |  | CC1(C)CC(=O)C2=C(C1)Nc1n[nH]cc1C21CCCN(S(=O)(=O)Cc2ccccc2)CC1 (stereo not drawn) [Compound 932632] | IC50 ([1]; 1 nM GSK3α, 4 μM ATP, 30 minute preincubation, Table 16, read-out: GSK3-A TR-FRET BIOCHEMICAL (TR-FRET)): ≤ 0.1 µM; IC50 ([2]; 1 nM GSK3b, 2 μM ATP, 30 minute preincubation, Table 16, read-out: GSK3-B TR-FRET BIOCHEMICAL (TR-FRET)): 0.1 to 1 µM
24 | > 5 µM | > 5 µM | CC1(C)CC(=O)C2=C(C1)Nc1n[nH]cc1C21CCCN(c2ccncc2)CC1 (stereo not drawn) [Compound 932633] | 
25 | ≤ 0.1 µM | 0.1 to 1 µM | CCC1(c2cccc(N(C)c3ccc(C(F)(F)F)nc3)c2)C2=C(CC(C)(C)CC2=O)Nc2n[nH]cc21 (stereo not drawn) [Compound 932634] | 
26 | > 5 µM | > 5 µM | CCC1(c2cccc(-c3ccnc(C)c3)c2)C2=C(CC(C)CC2=O)Nc2n[nH]cc21 (stereo not drawn) [Compound 932637] | 
